These results are taken from patent publication US8859612B2, “Use of hesperidin or one of its derivatives for making a medicine for bone formation stimulation” (Institut National de la Recherche Agronomique (INRA), priority 2002, dated 2014).

Series [1] has as its system hPOB-tert cells. The series is described as follows: Alkaline phosphatase activity in hPOB-tert cells (Example 2). It is filed as cell-based, human. On the procedure: (§1) We have tested three concentrations of hesperetin in the hPOB culture medium seeded to confluence: 1, 10 and 50 μM. Furthermore, these media lacked osteoblast differentiation factors (Vitamin D3 and dexamethasone). The control contained 0.1% DMSO (hesperetin being dissolved in the DMSO). The cells were incubated in these media for 35 days. The alkaline phosphatase activity, a marker of osteoblast differentiation, was measured on a cell lysate by using a commercial kit (Sigma No 247). The cells had been harvested at 0, 4, 8 and 12 days of incubation. The calcium content of the cells, the mineralisation marker, was quantified on a cell lysate after 21 days of incubation in the different media, with the aid of a commercial kit (Sigma No587).

The test system of series [2] is hPOB-tert cells. Nature of the series: Accumulation of calcium in hPOB-tert cells (Example 2). It is filed as cell-based, human. The settings on record: hesperetin 50 μM, 21 days of incubation, vs control cells (0.1% DMSO). On the procedure: as §1
Series [3] deals with oophorectomised rat (OVX) and sham-operated control rats (SH). Nature of the series: Femoral biomechanics (Example 1). It is filed as in vivo, Wistar rats. An excerpt:
(§2) In order to study the possible impact of this molecule on bone tissue, 40 female 3 months old Wistar rats (266±2 g) were used. These animals were accustomed to a basic semi-synthetic diet for the 7 days preceding the start of the period of experimentation. At D0, 20 rats were sham-operated, the other 20 were oophorectomised. Distributed in groups of 10, they were fed on various diets for 3 months, at the end of which they were sacrificed. The last week before being killed, from D85 to D90, the rats were inspected and the urine was collected (over a period of 24 hours). Similarly, the body composition of the rats was measured. After being killed the plasma and the femurs were collected for different analyses [Femurs: resistance to rupture, densitometry; Plasma: osteocalcinemia (marker for osteoblast activity), hesperetin level: Urines: desoxypyridinoline (marker for bone resorption)]. Throughout the entire duration of the experimentation, the rats were weighed once a week. The daily quantity of food distributed to each animal was 20 g.
(§3) 10 T SH and 10 T OVX: sham-operated and oophorectomised rats receiving a standard control diet for 3 months
(§4) 10 Hp SH et 10 Hp OVX: sham-operated and oophorectomised rats receiving a standard control diet supplemented with hesperidin (0.5%) for 3 months

Series [4] shares this test system. Nature of the series: Uterine weight (Example 1). In kind it is in vivo, Wistar rats. The conditions noted are these: 3 months; for uterine weight: hesperidin 0.5% in diet.
From the text: as §2, §3, §4
The uterine weight was evaluated in order to validate the castration.

For series [5] the test system is unchanged. Nature of the series: Femoral densitometry (Example 1). In kind it is in vivo, Wistar rats. The settings on record: for Total femoral density (T-BMD): hesperidin 0.5% in diet, 3 months.
From the text: as §2, §3, §4
The densities are expressed in g/cm^2.

Series [6] shares this test system. The series is described as follows: Plasma levels of osteocalcin, marker for osteoblast activity (Example 1). It is filed as in vivo, Wistar rats. The settings on record: Hp SH vs T SH, p<0.05 (FIG. 4).
From the text: as §2, §3, §4

Series [7] has the same test system. The series is described as follows: Urinary excretion of desoxypyridinoline, marker for bone resorption (Example 1). In kind it is in vivo, Wistar rats.
From the text: as §2, §3, §4

For series [8], the system named is six months' old oophorectomised rat. Nature of the series: Biomechanical properties of the femur, six months' old rats (Example 3). In kind it is in vivo, Wistar rats. The settings on record: hesperidin diet (FIG. 14). On the procedure:
(§5) The experiments were performed on 48 six months' old female Wistar rats: 24 oophorectomised (OVX) and 24 sham-operated (SH).
(§6) After the surgical operation on D0, the animals were given seven days to accustom themselves to their surroundings. At the end of this period of adaptation, the rodents were distributed on the basis of weight parameters in 4 homogeneous groups and received daily for 72 days 22 g of the following diets: • group SH: 12 sham-operated rats fed with the control diet • group OVX: 12 oophorectomised rats which received the control diet • group SH Hp: 12 sham-operated rats fed with the hesperidin diet • group OVX Hp: 12 oophorectomised rats which received the hesperidin diet
The mechanical properties of the femur of the individuals of the different groups of animals were analysed.

The test system is the same in series [9]. The series is described as follows: Uterine weight, six months' old rats (Example 3). In kind it is in vivo, Wistar rats. On the procedure:
as §5, §6
When sacrificed (D90), the animals were anesthetised by an intra-peritoneal injection of chloral (Fluka: 8% solution; 0.4 ml/100 g live weight). Blood samples were collected from the abdominal aorta. The uterus was weighed.

Series [10] in a line: Circulating levels of hesperetin (Example 1). It is filed as in vivo, Wistar rats. The conditions noted are these: OVX and SH rats receiving diet supplemented with hesperidin 0.5%, 3 months.
From the text: as §2, §4

The subject of series [11] is six months' old oophorectomised rat. The series is described as follows: Bone mineral density of the femur, six months' old rats (Example 3). It is filed as in vivo, Wistar rats. The conditions noted are these: six months' old OVX rats, consumption of hesperidin (FIG. 11). On the procedure:
as §5, §6
The femurs were extracted and adjacent soft tissues were removed, then the femurs were stored in 80% ethanol for the determination of bone density.

With `COc1ccc([C@@H]2CC(=O)c3c(O)cc(O)cc3O2)cc1O` [hesperetin, (S)-2,3-dihydro-5,7-dihydroxy-2-(3-hydroxy-4-methoxyphenyl)-4H-1-benzopyran-4-one], the “alkaline phosphatase activity (osteoblast differentiation)” value in series [1] (hesperetin 1 μM, vs untreated cells, no vitamin D3 or dexamethasone) is on record as “lacks effect”; in [1] (hesperetin 10 μM, from the 4th day onwards, plateau on the 8th day) it was “increase”; in series [1] (hesperetin 50 μM, from the 4th day onwards, plateau on the 8th day) it was “most efficacious”. In [2], the “calcium deposition (calcium content of the cells)” value is on record as “stimulate calcium deposition”.
Regarding `COc1ccc([C@@H]2CC(=O)c3c(O)cc(O[C@@H]4O[C@H](CO[C@@H]5O[C@@H](C)[C@H](O)[C@@H](O)[C@H]5O)[C@@H](O)[C@H](O)[C@H]4O)cc3O2)cc1O` [hesperidin, (S)-7-[[6-0-(6-deoxy-α-L-mannopyranosyl)-β-D-glucopyranosyl]oxy]-2,3-dihydro-5-hydroxy-2-(3-hydroxy-4-methoxyphenyl)-4H-1-benzopyran-4-one], the “Femoral resistance to rupture” value in series [3] (Hp SH: sham-operated rats, hesperidin 0.5% in diet, 3 months) was found to be 106.3 ± 5.3 N. Also, in [3] (oophorectomised rats, diet supplemented with hesperidin), the “femoral resistance to rupture, effect in words” value is “tendency to improve”. Besides, the uterine weight in [4] (Hp OVX: oophorectomised rats, ** p<0.01 vs SH) is listed as 238.6 ± 2.23** mg; in series [4] (Hp SH: sham-operated rats) it was 659.4 ± 8.96 mg. The uterotrophic effect result was “lack a uterotrophic effect” in series [4] (uterine weight not modified by consumption of hesperidin 0.5% in diet) and “lacks a uterotrophic effect” in series [9] (six months' old rats, hesperidin diet (FIG. 10)). The “Total femoral density (T-BMD)” value in series [5] (Hp OVX: oophorectomised rats) worked out at 0.2445 g/cm^2; in series [5] (Hp SH: sham-operated rats), 0.2501 g/cm^2. For the same molecule, in series [5] (both OVX and SH rats vs groups on standard diet, p<0.05), the “diaphyseal femoral density, effect in words” value is “significantly improves”. In addition, in series [5] (intact or oophorectomised rats on hesperidin diet vs standard diet (FIG. 2)), the “metaphyseal femoral density (M-BMD)” value was “increase”. For the same molecule, the “metaphyseal femoral density (M-BMD), mineralisation” value in series [5] (non-castrated animals, by comparison with T SH) is listed as “improvement of the mineralisation”. For the same molecule, the “total femoral density, effect on demineralisation induced by oophorectomy” value in series [5] (oophorectomised rats, consumption of hesperidin) was “completely prevents this demineralisation”. For the same molecule, the “total femoral density, effect in words” value in series [5] (sham-operated (SH) rats, consumption of hesperidin) is “significantly improves”. Also, in series [6], the “plasma levels of osteocalcin (bone accretion)” value is reported as “stimulates bone accretion”. Besides, the “urinary excretion of DPD” value in [7] (Hp SH rats in comparison with T SH) is on record as “significantly diminished”. In addition, in series [7] (OVX rats, consumption of hesperidin (FIG. 3)), the “urinary excretion of desoxypyridinoline: increase of bone resorption induced by oophorectomy” value is “prevented”. Also, the “biomechanical properties of the femur (femoral load at rupture)” value is “preserve them” in series [8] (OVX Hp: six months' old oophorectomised rats) and “improve them” in series [8] (intact (sham-operated) six months' old rats). Further, the “uterine atrophy following ovarian ablation” value in series [9] (OVX rats, consumption of hesperidin (FIG. 10)) was “not prevented”. Besides, in series [10], the “mean plasma level of aglycone (hesperetin)” value was 12.53 ± 2.48 µM. Moreover, the “demineralisation of the femur (total bone mineral density)” value in series [11] is on record as “prevented (at least partially)”.
